Source: patent publication US7435548B2, “Methods for producing ex vivo models for inflammatory disease and uses thereof” (deCODE genetics ehf., priority 2001, dated 2008)

Assays:
[1] = test system: airway smooth muscle (ASM) tissues; assay: ASM relaxant responses to isoproterenol after half-maximal ACh contraction (organ bath); format: tissue-based, New Zealand White rabbits; settings: control ASM
Description: (§1) After anesthesia with xylazine (10 mg/kg) and ketamine (50 mg/kg), the animals were sacrificed with systemic air embolism.
(§2) After incubation, each airway segment was suspended longitudinally between stainless steel triangular supports in siliconized 20-mL organ baths (Harvard Apparatus, Inc., South Natick, Mass.). […] Care was taken to place the membranous portion of the trachea between the supports to maximize the recorded tension generated by the contracting trachealis muscle. […] Passive resting tension of each tracheal smooth muscle segment was set at 2.0 g after each tissue had been passively stretched to a tension of 8 g to optimize the resting length of each segment. The tissues were allowed to equilibrate in the bath for 45 minutes, at which time each tissue was primed with a 1 minute exposure to 10^−4M acetylcholine (ACh). Cholinergic contractility was initially assessed in the ASM by cumulative administration of ACh in final bath concentrations from 10^−9 to 10^−3M. […] The relaxant responses to isoproterenol were analyzed in terms of percent maximal relaxation (Rmax) from the active cholinergic contraction, and sensitivity to the relaxing agent was determined as the corresponding pD50 value associated with 50% Rmax.

[2] = test system: airway smooth muscle (ASM) tissues; assay: ASM constrictor responses to acetylcholine (organ bath, isometric tension); format: tissue-based, New Zealand White rabbits
Description: as §1, §2

[3] = test system: human ASM cells; assay: Microarray mRNA expression (Affymetrix HU95GeneFL) in cultured ASM cells; format: cell-based
Description: Simultaneous multiple gene mRNA expression was examined in human ASM cells with the Affymetrix expression microarray system using human gene chips (HU95GeneFL array; Affymetrix, Santa Clara, Calif.) representing approximately 6000 genes. The ASM cells were derived from a donor (Clonetics Corp., San Diego, Calif.) who had no evidence of pulmonary disease, and the cells were carefully characterized by the manufacturer with specific markers to confirm their selective smooth muscle phenotype and to exclude contamination with other cell types.
Following incubation of the cells, the total RNA used for the Affymetrix microarray expression analysis was extracted and purified using commercially available reagents and in accordance with methods recommended by the manufacturer (Affymetrix, Santa Clara, Calif.). Briefly, total RNA was extracted using Trizol and purified with Qiagen RNAEASY spin columns (Qiagen GmbH, Germany). Approximately 5 μg of RNA was used for first and second strand cDNA synthesis. After precipitation, the cDNAs were transcribed to cRNAs. The biotinylated cRNA was subsequently hybridized to the Affymetrix gene chips overnight. Non-bound probes were removed by stringency washing. The hybridized chips were developed using a Streptavidin-Phycoerythrin complex and scanned. The scanned images were then analyzed with Affymetrix software and the data was examined using commercially available software programs, including Spotfire Net 5.1 (Spotfire Inc, Mass.).

[4] = control ASM (medium alone), mean±SE

How did the EC50 ([1]; Oryctolagus cuniculus, read-out: pD50 for isoproterenol (converted)) turn out when `CC(C)NCC(O)c1ccc(O)c(O)c1` (stereo not drawn) [isoproterenol] was run?
The EC50 was 813 nM.

And the “maximal relaxation (Rmax) to isoproterenol” value [1]?
The value was 57.7±7.1%.

How did the “maximal isometric force of contraction (Tmax) to ACh” value [2, 4] turn out when `CC(=O)OCC[N+](C)(C)C` [ACh, acetylcholine] was run?
The value was 93.7±8.9 g/g ASM weight.

And the “pD50 (−log ED50) for ACh” value [2, 4]?
Its value is 4.66±0.12 −logM.

For `C[C@@H]1C[C@H]2[C@@H]3CCC4=CC(=O)C=C[C@]4(C)[C@@]3(F)[C@@H](O)C[C@]2(C)[C@@]1(O)C(=O)CO` [DEX, dexamethasone], which “effect on constrictor responses to ACh in control tissues” value ([2]; DEX 10^−5M alone) is on record?
Its value is “no effect”.

What about the “Tmax to ACh” value ([2]; IL-1β/TNFα exposed ASM pre-treated 1 hour with DEX 10^−5M, mean±SE) of the same compound?
The value was 102.9±13.1 g/g ASM weight.

What about the “MER, ABCB2” value ([3]; ATP-binding cassette, ABCB2/X57522, IL-1β/TNFα, presence or absence of DEX 10^−5M) of the same compound?
Its value is 1.75.

And the “MER, AMPD3” value ([3]; Adenosine monophosphate deaminase, AMPD3/D12775, IL-1β/TNFα, presence versus absence of DEX 10^−5M)?
The value was 0.82.

What about the “MER, BCL2A1” value ([3]; BCL2-related protein A1, BCL2A1/U29680, IL-1β/TNFα, presence versus absence of DEX 10^−5M) of the same compound?
Its value is 0.41.

And the “MER, BKR2” value ([3]; Bradykinin receptor-2, BKR2/X86163, IL-1β/TNFα, presence versus absence of DEX 10^−5M)?
Its value is 0.62.

What about the “MER, CD83” value ([3]; CD83, CD83/Z11697, IL-1β/TNFα, presence versus absence of DEX 10^−5M) of the same compound?
The value was 0.56.

What about the “MER, CKS2” value ([3]; CDC28 protein kinase-2, CKS2/X54942, IL-1β/TNFα, presence versus absence of DEX 10^−5M) of the same compound?
The value was 0.80.

And the “MER, CEBPD” value ([3]; Enhancer binding protein, CEBPD/M83667, IL-1β/TNFα, presence or absence of DEX 10^−5M)?
The value was 1.48.

What about the “MER, FGF2” value ([3]; Fibroblast growth factor-2, FGF2/J04513, IL-1β/TNFα, presence versus absence of DEX 10^−5M) of the same compound?
The value was 0.69.

And the “MER, GBP1” value ([3]; Guanylate binding protein-1, GBP1/M55542, IL-1β/TNFα, presence or absence of DEX 10^−5M)?
The value was 1.22.

What about the “MER, HSD11B1” value ([3]; Hydroxysteroid (11-β) dehydrogenase-1, HSD11B1/M7665, IL-1β/TNFα, presence or absence of DEX 10^−5M) of the same compound?
Its value is 2.57.

And the “MER, INHBA” value ([3]; Inhibin, INHBA/X57579, IL-1β/TNFα, presence versus absence of DEX 10^−5M)?
The value was 0.00.

And the “MER, ICAM-1” value ([3]; Intercellular adhesion molecule-1, ICAM-1/M24283, mRNA elicited by IL-1β/TNFα in presence versus absence of DEX 10^−5M)?
The value was 0.66.

What about the “MER, IL-6” value ([3]; Interleukin-6, IL-6/X04602, IL-1β/TNFα, presence versus absence of DEX 10^−5M) of the same compound?
Its value is 0.89.

And the “MER, IL-8” value ([3]; Interleukin-8, IL-8/M28130, IL-1β/TNFα, presence versus absence of DEX 10^−5M)?
Its value is 0.57.

What about the “MER, Interleukin-13 receptor-α” value ([3]; Interleukin-13 receptor-α, IL-1 RA2/U70981, IL-1β/TNFα, presence versus absence of DEX 10^−5M) of the same compound?
Its value is 0.00.

What about the “MER, KIAA0247” value ([3]; KIAA0247 gene product, KIAA0247/D87434, IL-1β/TNFα, presence or absence of DEX 10^−5M) of the same compound?
The value was 1.3.

What about the “MER, MMP3” value ([3]; Matrix metalloproteinase-3, MMP3/X05232, IL-1β/TNFα, presence versus absence of DEX 10^−5M) of the same compound?
Its value is 0.70.

And the “MER, MMP10” value ([3]; Matrix metalloproteinase-10, MMP10/X07820, IL-1β/TNFα, presence versus absence of DEX 10^−5M)?
Its value is 0.00.

And the “MER, MMP12” value ([3]; Matrix metalloproteinase-12, MMP12/L23808, IL-1β/TNFα, presence versus absence of DEX 10^−5M)?
The value was 0.20.

What about the “MER, MAP3K5” value ([3]; Mitogen-activated protein kinase kinase kinase-5, MAP3K5/U67156, IL-1β/TNFα, presence or absence of DEX 10^−5M) of the same compound?
Its value is 1.65.

And the “MER, MDCP” value ([3]; Monocyte-derived chemotactic protein, MDCP/HG4069, IL-1β/TNFα, presence versus absence of DEX 10^−5M)?
Its value is 0.29.

And the “MER, NAF1” value ([3]; Nef-associated factor 1, NAF1/D30755, IL-1β/TNFα, presence versus absence of DEX 10^−5M)?
Its value is 0.88.

And the “MER, NINJ1” value ([3]; Ninjurin-1, NINJ1/U72661, IL-1β/TNFα, presence versus absence of DEX 10^−5M)?
Its value is 0.59.

What about the “MER, NFATC1” value ([3]; Nuclear factor of activated T cells-C1, NFATC1/U08015, IL-1β/TNFα, presence versus absence of DEX 10^−5M) of the same compound?
The value was 0.61.

What about the “MER, NFKB1” value ([3]; Nuclear factor of kappa light polypeptide, NFKB1/M58603, IL-1β/TNFα, presence versus absence of DEX 10^−5M) of the same compound?
The value was 0.87.

And the “MER, NR4A3” value ([3]; Nuclear receptor subfamily 4, NR4A3/U12767, IL-1β/TNFα, presence versus absence of DEX 10^−5M)?
The value was 0.54.

What about the “MER, PTX3” value ([3]; PTX3 promoter, PTX3/X97748, IL-1β/TNFα, presence versus absence of DEX 10^−5M) of the same compound?
Its value is 0.69.

And the “MER, PDE4B” value ([3]; Phosphodiesterase-4B, PDE4B/L20971, IL-1β/TNFα, presence versus absence of DEX 10^−5M)?
Its value is 0.40.

And the “MER, ATP2B1” value ([3]; Plasma membrane Ca^2+ ATPase, ATP2B1/J04027, IL-1β/TNFα, presence versus absence of DEX 10^−5M)?
The value was 0.34.

And the “MER, PBEF” value ([3]; Pre-B cell colony-enhancing factor, PBEF/U02020, IL-1β/TNFα, presence versus absence of DEX 10^−5M)?
Its value is 0.73.

And the “MER, G0S2” value ([3]; Putative lymphocyte G0/G1 switch gene, G0S2/M72885, IL-1β/TNFα, presence versus absence of DEX 10^−5M)?
Its value is 0.65.

What about the “MER, RANTES” value ([3]; RANTES, RANTES/M21121, IL-1β/TNFα, presence versus absence of DEX 10^−5M) of the same compound?
The value was 0.67.

And the “MER, STAT5A” value ([3]; Signal transducer/activator of transcription 5, STAT5A/U43185, IL-1β/TNFα, presence versus absence of DEX 10^−5M)?
Its value is 0.87.

And the “MER, SCYA7” value ([3]; Small inducible cytokine subfamily A7, SCYA7/X72308, IL-1β/TNFα, presence versus absence of DEX 10^−5M)?
Its value is 0.50.

And the “MER, SCYB2” value ([3]; Small inducible cytokine subfamily B2, SCYB2/M57731, IL-1β/TNFα, presence versus absence of DEX 10^−5M)?
The value was 0.52.

What about the “MER, SCYB3” value ([3]; Small inducible cytokine subfamily B3, SCYB3/X53800, IL-1β/TNFα, presence versus absence of DEX 10^−5M) of the same compound?
Its value is 0.83.

And the “MER, SCYB6” value ([3]; Small inducible cytokine subfamily B6, SCYB6/U83303, IL-1β/TNFα, presence versus absence of DEX 10^−5M)?
The value was 0.61.

What about the “MER, SCYB10” value ([3]; Small inducible cytokine subfamily B10, SCYB10/X02530, IL-1β/TNFα, presence or absence of DEX 10^−5M) of the same compound?
Its value is 1.12.

What about the “MER, SCYB5” value ([3]; Small inducible subfamily B5, SCYB5/L37036, IL-1β/TNFα, presence or absence of DEX 10^−5M) of the same compound?
Its value is 1.75.

And the “MER, SOD2” value ([3]; Superoxide dismutase-2, SOD2/X07834, IL-1β/TNFα, presence versus absence of DEX 10^−5M)?
The value was 0.89.

And the “MER, Tenascin C” value ([3]; Tenascin C, HXB/X78565, IL-1β/TNFα, presence or absence of DEX 10^−5M)?
Its value is 1.21.

And the “MER, TNF-αIP3” value ([3]; Tumor necrosis factor-α-induced protein 3, TNF-αIP3/M59465, IL-1β/TNFα, presence or absence of DEX 10^−5M)?
Its value is 1.21.

And the “MER, TNF-αIP6” value ([3]; Tumor necrosis factor-α-induced protein 6, TNF-αIP6/M31165, IL-1β/TNFα, presence or absence of DEX 10^−5M)?
Its value is 1.11.

And the “MER, uPA” value ([3]; Urokinase plasminogen activator, uPA/X02419, IL-1β/TNFα, presence versus absence of DEX 10^−5M)?
Its value is 0.00.

What about the “inhibition of IL-1β/TNFα induced mRNA expression, p50-NF-kB gene” value ([3]; in the presence of DEX 10^−5M) of the same compound?
Its value is 51%.

What about the “inhibition of IL-1β/TNFα induced mRNA expression, phosphodiesterase D4 gene” value ([3]; in the presence of DEX 10^−5M) of the same compound?
The value was 60%.

And the “inhibition of IL-1β/TNFα induced mRNA expression, plasma membrane Ca^2+ ATPase gene” value ([3]; in the presence of DEX 10^−5M)?
The value was 66%.

And the “MER, pro-Interleukin-1β” value ([3]; pro-Interleukin-1β, IL-1β/X04500, IL-1β/TNFα, presence versus absence of DEX 10^−5M)?
The value was 0.45.
